Measurements taken from patent US9856273B2, “ETP derivatives” (priority 2012, dated 2018).
“Also recorded” adds a separate entry of the source.

What was measured:
[1] = Toxicity on intraperitoneal injection or oral administration; conditions: up to 20 mg/kg, intraperitoneal injection (IP) or oral administration
SUV39H1 = SUV39H1 (Homo sapiens, UniProt O43463); test: Histone methyltransferase (HMT) assay in vitro; format: biochemical
Procedure: (§1) For histone methyltranferase (HMT), DNA methyltransferase (DNMT) and Histone acetyltransferase (HAT) assays in vitro, human recombinant HMT, DNMT and HAT proteins were mixed with substrates in the reaction buffer (50 mM Tris-HCl (pH 8.5), 5 mM MgCl2, 50 mM NaCl, 1 mM DTT, 1 mM PMSF, 1% DMSO), including histone H3, histone H4, nucleosomes, or core histone. Racemic ETP69, S enantiomer or DMSO as a vehicle control was preincubated in the mixture. Next, for HMTs and DNMT assays, […] of ^3H-SAM was added to the mixture for the reaction initiation and conversion of ^3H-SAM+histone L-lysine to SAH+histone N^6-[methyl-^3H]-L-lysine was monitored with miniatured radioligand-filter binding platform. For p300 HAT assays, the conversion of acetyl-^3H-acetyl coenzyme A to coenzyme A was monitored. The reactions were carried out at 30° C. IC50 values were determined using Excel and GraphPad Prism software.

G9a = G9a (Homo sapiens, UniProt Q96KQ7); test: Histone methyltransferase (HMT) assay in vitro; format: biochemical
Procedure: as §1

[2] = tested on: transferases (HMT, HAT, DNMT); test: Screen against a number of transferases; format: biochemical, human
Procedure: as §1

H3K9 trimethylation = test: Western blot of histone H3 (trimethyl K9) in A2058 melanoma cells; format: cell-based, human
Procedure: (§2) Western blot analyses were performed with specific antibodies. Briefly, human A2058 melanoma, DU145 prostate, A549 non-small lung and SKOV3 ovarian cancer cells were treated with ETP69. Whole-cell lysates (40 […]g) or histone extracts (10 […]g) were resolved by SDS-PAGE. Primary specific antibodies to histone H3 and histone H3 (trimethyl K9) were incubated in PBS (pH 7.5) with 0.1% (v/v) Tween-20 and 5% (w/v) BSA with gentle agitation overnight at 4° C. Other specific antibodies were diluted in PBS (pH 7.5) with 5% (w/v) nonfat milk and 0.1% (v/v) Tween-20 over night at 4° C. Horseradish peroxidase-conjugated secondary antibodies were incubated in PBS (pH 7.5) with 5% (w/v) nonfat milk and 0.1% (v/v) Tween-20 for 1 h at room temperature. Positive immuno-reactive proteins were detected using the ECL system (Pierce, Rockford, Ill.).

[3] = tested on: A2058 melanoma SQ xenografts; format: in vivo, mouse; conditions: A2058 xenograft, 20 mg/kg IP once daily for 13 days
Procedure: In Vivo Xenograft Procedures for Lung Cancer, Melanoma, and Ovarian Cancer (See FIGS. 15A, 15B, 16A, 16B, 17A, 17B, 18A and 18B): Human A2058 melanoma cells (3×10^6) were resuspended in serum-free RPMI1640 medium and subcutaneously injected into the flank of 5-6 weeks old Athymic female nude mouse (NCI). When palpable tumor sizes reached at approximately 100 mm^3, mice were divided into two groups (vehicle=5, treatment=5). Then, ETP69 was administered with intraperitoneal (IP) injection at 20 mg/kg with vehicle (10% DMSO+0.5% Teen 20+89.5% saline), once daily for 13 days. Tumor volumes were calculated by the formula 1/2a×b^2, where a is the long diameter, and b is the short diameter. Tumor volumes correlate with tumor weights. The statistical significance of group differences was analyzed using a Student's t-test with the two-tailed distribution. P values less than 0.05 were considered statistically significant.

p53 = test: QPCR of p53 expression in Panc1 cells; format: cell-based; conditions: 100 nM-500 nM
Excerpt: QPCR: Total RNA was isolated from cells using the RNeasy kit (Qiagen). The Tetro cDNA kit (Bioline) and SensiFast Probe kit (Bioline) were used to reverse-transcribe and amplify total RNA according to the manufacturer's protocol. The ProbeFinder software (Roche Applied Science) was used to design the primer sets for SUV39H1, p53 and GAPDH and to select the respective probes from the Universal ProbeLibrary (Roche Applied Science). Probe #13 and the following primers were used for the SUV39H1 assay: 5′ […] (SEQ ID NO: 1) and 5′ […] (SEQ ID NO:2). Probe #21 and the following primers were used for the p53 assay: 5′ […] (SEQ ID NO:3) and 5′ […] (SEQ ID NO:4). Probe #60 and the following primers were used for the GAPDH assay: 5′ agccacatcgctcagacac (SEQ ID NO:5) and 5′ gcccaatacgaccaaatcc (SEQ ID NO:6). All samples were run in triplicates. Amplifications were performed on a Bio-Rad CFX96 Touch Multiple-Color Real-time PCR Detection System. The data were normalized to the GAPDH expression and the relative expression levels were calculated using the 2^−ΔΔCt method.

[4] = tested on: SKOV3 ovarian cancer cells; test: Annexin V-FITC apoptosis assay; format: cell-based, human; conditions: 48 h
Procedure: Apoptosis Determinations (FIG. 11): Apoptosis assays of human SKOV3 ovarian cancer cells based on […] were carried out using Annexin V-FITC. Briefly, cells were seeded in 6-well plates, incubated overnight at 37° C. in 5% (v/v) CO2 and exposed to ETP69 in a dose-dependent manner for 48 h. DMSO was used as the vehicle control. Cells were analyzed using a FACScan flow cytometer to quantify fluorescence. Apoptotic cells were defined as Annexin V-FITC positive. Each experiment was performed in quadruplicate.

p16 tumor suppressor = test: Western blot, induction of p16; format: cell-based, human; conditions: DU145 prostate cancer cells and A2058 melanoma cells
Procedure: as §2, with “Induction of p16, p53, p21waf1 and p27 (FIGS. 8 and 9): Western” for “Western”, “[…]g)” for “[…]g) or histone extracts (10 […]g)”, “p53, p21^WAF1, p27(Kip1), p16” for “histone H3”, “Actin” for “histone H3 (trimethyl K9) were incubated in PBS (pH 7.5) with 0.1% (v/v) Tween-20 and 5% (w/v) BSA with gentle agitation overnight at 4° C. Other specific antibodies”

Sequence of G9a (Q96KQ7 whole entry): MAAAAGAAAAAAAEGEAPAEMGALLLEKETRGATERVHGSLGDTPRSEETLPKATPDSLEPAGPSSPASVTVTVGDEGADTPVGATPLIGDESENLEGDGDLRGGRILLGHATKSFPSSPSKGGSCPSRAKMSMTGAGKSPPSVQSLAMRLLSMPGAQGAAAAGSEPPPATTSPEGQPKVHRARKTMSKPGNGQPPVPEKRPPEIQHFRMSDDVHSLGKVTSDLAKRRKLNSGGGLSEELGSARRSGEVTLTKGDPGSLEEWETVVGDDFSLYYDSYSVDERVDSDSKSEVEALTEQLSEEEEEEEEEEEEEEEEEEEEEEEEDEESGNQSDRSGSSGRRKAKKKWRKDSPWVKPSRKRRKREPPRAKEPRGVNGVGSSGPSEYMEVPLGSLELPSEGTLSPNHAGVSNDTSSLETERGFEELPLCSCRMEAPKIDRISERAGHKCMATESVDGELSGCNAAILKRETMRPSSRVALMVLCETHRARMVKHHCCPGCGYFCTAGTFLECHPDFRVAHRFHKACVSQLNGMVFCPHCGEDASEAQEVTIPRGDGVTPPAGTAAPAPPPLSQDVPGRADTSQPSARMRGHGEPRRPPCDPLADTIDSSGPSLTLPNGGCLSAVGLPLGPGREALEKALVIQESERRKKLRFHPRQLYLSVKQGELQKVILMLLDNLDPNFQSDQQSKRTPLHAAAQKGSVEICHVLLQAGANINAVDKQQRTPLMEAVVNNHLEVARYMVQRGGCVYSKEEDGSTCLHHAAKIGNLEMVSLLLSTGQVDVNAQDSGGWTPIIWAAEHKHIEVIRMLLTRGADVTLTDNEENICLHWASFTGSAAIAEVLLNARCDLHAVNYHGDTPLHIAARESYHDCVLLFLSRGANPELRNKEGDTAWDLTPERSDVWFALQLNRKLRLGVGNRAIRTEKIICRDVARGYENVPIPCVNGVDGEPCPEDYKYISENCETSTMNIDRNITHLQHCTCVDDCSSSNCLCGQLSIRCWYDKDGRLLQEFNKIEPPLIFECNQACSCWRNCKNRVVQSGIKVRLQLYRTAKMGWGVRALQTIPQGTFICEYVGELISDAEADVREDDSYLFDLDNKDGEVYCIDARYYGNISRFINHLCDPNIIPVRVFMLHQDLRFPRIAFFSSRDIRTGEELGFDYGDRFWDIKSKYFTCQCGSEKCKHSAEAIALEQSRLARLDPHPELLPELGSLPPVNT
Sequence of SUV39H1 (O43463 whole entry): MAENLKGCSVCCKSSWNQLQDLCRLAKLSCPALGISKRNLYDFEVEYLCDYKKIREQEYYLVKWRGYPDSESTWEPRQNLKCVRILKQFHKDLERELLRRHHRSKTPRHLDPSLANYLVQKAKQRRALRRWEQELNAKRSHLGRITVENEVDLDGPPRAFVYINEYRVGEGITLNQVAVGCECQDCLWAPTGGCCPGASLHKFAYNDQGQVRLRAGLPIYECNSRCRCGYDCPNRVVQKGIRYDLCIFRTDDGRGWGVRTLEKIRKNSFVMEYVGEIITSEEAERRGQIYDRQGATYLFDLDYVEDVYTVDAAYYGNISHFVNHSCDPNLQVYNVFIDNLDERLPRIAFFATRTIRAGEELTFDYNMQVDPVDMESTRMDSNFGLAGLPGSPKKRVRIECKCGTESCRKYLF

Compound: CN1C(=O)[C@@]23C[C@](C)(C#N)[C@H](c4ccc5c(c4)OCO5)N2C(=O)[C@]1(C)SS3 (racemic) [ETP69, Rac-(3S,6S,7S,8aS)-6-(Benzo[d][1,3]dioxol-5-yl)-2,3,7-trimethyl-1,4-dioxohexahydro-6H-3,8a-epidithiopyrrolo[1,2-a]pyrazine-7-carbonitrile]
- toxicity [1]: no significant toxicity
- inhibition of HMT SUV39H1 (SUV39H1): selectively inhibits; also recorded: specific inhibition
- inhibition of HMT G9a (G9a): selectively inhibits; also recorded: specific inhibition
- potency against several transferases compared with chaetocin [2]: about ten times more potency
- selectivity for histone methyltransferases (SUV39H1; G9a) over histone acetylases (p300) and DNA methyl transferases (DNMT1) [2]: selective
- inhibition of H3K9 trimethylation (H3K9 trimethylation): inhibition
- toxicity symptoms [3]: no observable toxicity symptoms
- tumor volume [3]: decreased
- tumor weight [3]: decreased
- up-regulation of p53 (p53): ≥ 3 fold
- apoptosis [4]: induces apoptosis
- induction of p16 tumor suppressor (p16 tumor suppressor): induces
